In patent US20150190416A1, “FILAGGRIN PRODUCTION PROMOTER, THERAPEUTIC AGENT FOR DISEASES ASSOCIATED WITH REDUCTION IN PRODUCTION OF FILAGGRIN, AND METHOD FOR SCREENING FOR SAID THERAPEUTIC AGENT” (KYOTO UNIVERSITY, priority 2012, published 2015):

What was measured:
[1] = tested on: FLG promoter; experiment: Transcription-activating effect on FLG promoter, luciferase assay in NHEK cells (Example 1); format: cell-based, human; details: 1 μM (Comparative Compound 2: 1 μM or 0.1 μM), 3 days
Method: In this example, the transcription activity on FLG promoter of an N-quinolylbenzamide derivative (Compound 1) was confirmed by using neonatal normal human epidermal keratinocytes (NHEK cells). The transcription activity of the FLG promoter was measured by luciferase assay.
1) 1.2×10^5 cells/ml of NHEK cells (KURABO INDUSTRIES LTD.) were plated on a 96-well plate at 80 μl/well (9.6×10^3 cells/well), and 100 μl of a culture medium containing a medium for proliferating normal human epidermal keratinocytes (HuMedia-KG2, KURABO INDUSTRIES LTD.) supplemented with human epidermal growth factor (hEGF) (0.1 ng/ml), insulin (10 μg/ml), hydrocortisone (0.5 μg/ml), gentamycin (50 μg/ml), amphotericin B (50 ng/ml), and bovine brain pituitary extract (BPE) (0.4%, v/v) were added to the plate, and the cells were cultured under the conditions of 37° C. and 5% CO2. […]
4) 3 days after the addition of the medicament in the step 3), reagents for luciferase assay (Bright-Glo™ Luciferase Assay System, Promega Corporation) were used and the luciferase activity was measured according to the manufacturer's protocol. […] After standing at rest for two minutes, 70 μl thereof were subjected to the measurement of the absorbance of luciferase.

[2] = tested on: FLG mRNA; experiment: FLG mRNA in three-dimensional cultured skin, real-time PCR (Example 10); format: cell-based; details: human skin three-dimensional model, 1 μM, recovered 7 days after start of culture
Method: In this example, the expression-increasing effect of Compound 1 on FLG mRNA was examined by using three-dimensional cultured skin. FLG mRNA expression was measured by a real-time PCR method.
1) A commercially available human skin three-dimensional model (TEST SKIN™ LSE-013, TOYOBO CO., LTD.) was cultured by using TEST SKIN LSE ASSAY MEDIUM (TOYOBO CO., LTD.) according to the manufacturer's protocol.
2) After culture for 2 days, the following medicament A) or C) was dissolved in DMSO, and was added to the medium at 1 μM to treat the cells with the medicament. • A) Compound 1 (N-quinolylbenzamide derivative) • C) Comparative Compound 2 (scriptaid)
As a control example, a solvent only (vehicle) was added.
3) After further culture for 2 days (4 days after the start of culture), the medium was exchanged for the medium to which the medicament was added. 3 days after further culture (7 days after the start of culture), the three-dimensional cultured skin was recovered, frozen with liquid nitrogen, and then stored at −30° C.
4) Total RNA was extracted from each of the cells treated with the medicaments by using an RNA extraction reagent (RNeasy™, QIAGEN N.V.) according to the manufacturer's protocol. cDNA was prepared from the total RNA by using a reverse transcriptase reagent (Prime Script™, Takara) according to the manufacturer's protocol. […]

[3] = tested on: atopic dermatitis mouse model (NC/Nga); experiment: Dermatitis-alleviating effect in atopic dermatitis mouse model (NC/Nga) (Example 14); format: in vivo
Method: Experiments were conducted with raising 6- to 10-week-old atopic dermatitis-developing NC/Nga mice with mites (Japan SLC, Inc.) under a normal environment. Namely, the dermatitis-alleviating effect was measured by the oral administration of 500 μl of a solution obtained by dissolving Compound 1 at 0.75 mg/ml in a methyl cellulose solution (0.5 W/V % Methyl Cellulose 400 Solution, Wako, 133-14255) to an NC/Nga mouse developing dermatitis majorly in the ear auricles and the head (0.375 mg of Compound 1 was administered to the mouse per time) every other day. As a control, 500 μl of the methylcellulose solution were administered orally every other day.
With regard to clinical manifestations, the evaluation was conducted on a four-point scale of none (0), weak (1), moderate (2), and severe (3) by visual inspection for four items of erythema, edema, erosion, and squama. The evaluated values of the four items were summed to give a score before the start of oral administration (0 wk), 4 weeks after the oral administration (4 wk), and 8 weeks after the oral administration (8 wk), and then the clinical manifestations of a mouse model were measured as a clinical score. Further, the oral administration was ended 8 weeks after the start of oral administration, and thereafter, the mouse was continued to be kept under the same conditions. 4 weeks after the end of oral administration (12 wk after the start of oral administration), clinical manifestations were scored in the same manner.
A TEWL was measured 8 and 12 weeks after the start of oral administration in the above-mentioned section (i) using a tape type closed chamber system water transpiration measuring instrument VAPO SCAN AS-VT100RS (ASAHI BIOMED) according to the manufacturer's manual.
The appearances of the developing NC/Nga mice 12 weeks after the start of oral administration (the oral administration was ended 8 weeks after the start of oral administration) in (i) described above were shown in FIGS. 16(a) and 16(b).

## O=C(CCCCCN1C(=O)c2cccc3cccc(c23)C1=O)NO [Comparative Compound 2, 6-(1,3-Dioxo-1H,3H-benzo[de]isoquinolin-2-yl)hexanoic acid hydroxyamide, reference compound]
[1]
  transcription activity on FLG promoter: the transcription activity on FLG promoter was observed
[2]
  FLG mRNA expression (GAPDH ratio): increased FLG mRNA expression

## CCc1ccc(OCc2ccccc2C(=O)Nc2ccc3nc(C)cc(N)c3c2)cc1.Cl [Compound 1, N-(4-Amino-2-methyl-6-quinolyl)-2-[(4-ethylphenoxy)methyl]benzamide hydrochloride]
[1]
  transcription activity on FLG promoter: had the transcription activity on FLG promoter
[2]
  FLG mRNA expression (GAPDH ratio): increased FLG mRNA expression
[3]; 12 weeks after start of oral administration, 4 weeks after the end
  appearance of developing NC/Nga mouse: almost good clinical manifestations were kept
[3]; NC/Nga mouse, 4 weeks after the end of oral administration (12 weeks after the start)
  amount of water transpiration (TEWL): suppressed as compared to the control
[3]; NC/Nga mouse, 4 weeks after the end of oral administration (12 wk after the start)
  clinical manifestations of dermatitis (clinical score): symptoms of dermatitis were suppressed as compared to the control
[3]; NC/Nga mouse, oral 0.375 mg every other day, 8 weeks after the start of oral administration
  clinical manifestations of dermatitis (clinical score): symptoms of dermatitis were alleviated
[3]; developing NC/Nga mouse, oral 0.375 mg every other day, after 8 weeks, control about 60
  transepidermal water loss (TEWL): about 10 g/h·m^2
